In US20110077248A1, “IMIDAZOPYRIDINE AND RELATED ANALOGS AS SIRTUIN MODULATORS” (Sirtris Pharmaceuticals, Inc., priority 2008, published 2011):

Target: T1, SIRT1 (Homo sapiens, UniProt Q96EB6)
T1 construct: His-tag (N); made in house; host or cells: E. coli BL21(DE3), T7-promoter vector
T1 sequence (Q96EB6 1-747): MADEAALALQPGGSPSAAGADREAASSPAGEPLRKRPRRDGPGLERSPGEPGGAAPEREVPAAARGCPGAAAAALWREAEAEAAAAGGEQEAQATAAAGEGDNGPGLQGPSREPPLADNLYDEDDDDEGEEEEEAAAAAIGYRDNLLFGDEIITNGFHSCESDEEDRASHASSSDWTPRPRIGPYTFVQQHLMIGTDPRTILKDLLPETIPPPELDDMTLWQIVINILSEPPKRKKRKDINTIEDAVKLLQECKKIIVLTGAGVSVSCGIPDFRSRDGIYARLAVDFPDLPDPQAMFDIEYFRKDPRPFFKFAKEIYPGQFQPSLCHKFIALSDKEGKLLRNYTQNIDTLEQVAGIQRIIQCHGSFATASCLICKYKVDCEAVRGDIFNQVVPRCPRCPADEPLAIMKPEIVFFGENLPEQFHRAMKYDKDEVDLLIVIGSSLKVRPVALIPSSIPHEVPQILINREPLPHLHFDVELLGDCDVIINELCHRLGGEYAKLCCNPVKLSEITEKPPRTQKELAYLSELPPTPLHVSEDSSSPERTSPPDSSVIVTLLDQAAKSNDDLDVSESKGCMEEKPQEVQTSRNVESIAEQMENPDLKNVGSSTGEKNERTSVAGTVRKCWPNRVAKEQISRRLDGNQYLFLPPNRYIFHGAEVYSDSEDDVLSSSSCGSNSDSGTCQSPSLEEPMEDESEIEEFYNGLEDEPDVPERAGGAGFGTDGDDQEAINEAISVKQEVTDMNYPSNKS
Experiment: Mass spectrometry based assay for modulators of SIRT1 activity (deacetylation of p53-based acetylated peptide)
Format: biochemical
Conditions: for EC1.5: concentration of test compound that results in 150% activation of SIRT1, 0.5 μM peptide substrate, 120 μM βNAD+, 10 nM SIRT1, 25 min, 25° C.; for Emax: percent maximum fold activation of SIRT1
Procedure, shortened: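 Reaction: 10 nM His-tagged human SIRT1 (E. coli-expressed) with 0.5 μM 5TMR-labelled acetylated p53-derived peptide and 120 μM NAD+, 25 min at 25 °C, pH 8 Tris-acetate buffer; formic acid quench. Deacetylation quantified by mass spectrometry against a DMSO control; EC1.5 = concentration giving 150% activation.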

EC1.5 | Emax | SMILES
A (EC1.5<1.0 uM) | > 200% | O=C(Nc1cnccn1)c1nccn2cc(-c3ccccc3OC(F)(F)F)nc12 [Compound 245]
C (EC1.5>25 uM) | < 200% | O=C(Nc1nccs1)c1nccn2cc(-c3ccc(N4CCCC4)cc3)nc12 [Compound 168]
B (EC1.5 1-25 uM) | > 200% | O=C(Nc1ncc(CN2CCOCC2)s1)c1cccn2cc(-c3cccc(OC(F)(F)F)c3)nc12 [Compound 135]
B (EC1.5 1-25 uM) | < 200% | O=C(Nc1cnccn1)c1cccn2cc(-c3cccc(C(F)(F)F)c3)nc12 [Compound 118]
C (EC1.5>25 uM) | < 200% | O=C(Nc1cccn2cc(-c3cccc(-c4ccccc4)c3)nc12)c1cnccn1 [Compound 123, N-(2-(biphenyl-3-yl)imidazo[1,2-a]pyridin-8-yl)pyrazine-2-carboxamide]
B (EC1.5 1-25 uM) | < 200% | Cc1ccc(-c2cn3ccnc(C(=O)Nc4cccc(CN5CCOCC5)n4)c3n2)cn1 [Compound 165]
A (EC1.5<1.0 uM) | > 200% | O=C(Nc1cccc(CN2CCOCC2)n1)c1cccn2cc(-c3ccc(F)cc3C(F)(F)F)nc12 [Compound 238]
B (EC1.5 1-25 uM) | > 200% | O=C(Nc1cccc(CN2CCOCC2)n1)c1cccn2nc(-c3cccc(OC(F)(F)F)c3)nc12 [Compound 180]
B (EC1.5 1-25 uM) | > 200% | O=C(Nc1cccn2cc(-c3cccc(C(F)(F)F)c3)nc12)c1ncccn1 [Compound 122, N-(2-(3-(trifluoromethyl)phenyl)imidazo[1,2-a]pyridin-8-yl)pyrimidine-2-carboxamide]
C (EC1.5>25 uM) | < 200% | Cc1nc(C)c(-c2nc3c(C(=O)Nc4nccs4)cccn3n2)s1 [Compound 229]
C (EC1.5>25 uM) | < 200% | O=C(Nc1cccn2cc(-c3cccc(OC(F)(F)F)c3)nc12)c1cnccn1 [Compound 105]
C (EC1.5>25 uM) | < 200% | Cc1ccc(-c2nc3c(C(=O)Nc4ccccn4)cccn3n2)cn1 [Compound 211]
C (EC1.5>25 uM) | < 200% | O=C(Nc1nccs1)c1cccn2cc(-c3ccccc3C(F)(F)F)nc12 [Compound 148]
C (EC1.5>25 uM) | < 200% | O=C(Nc1cccn2cc(-c3ccccc3)nc12)C1CCNCC1 [Compound 103]
B (EC1.5 1-25 uM) | > 200% | O=C(Nc1nccs1)c1nccn2cc(-c3ccccc3OC(F)(F)F)nc12 [Compound 185]
A (EC1.5<1.0 uM) | > 200% | O=C(Nc1cccc(OCC(O)CO)c1)c1cccn2cc(-c3cccc(C(F)(F)F)c3)nc12 (stereo not drawn) [Compound 137, N-(3-(2,3-dihydroxypropoxy)phenyl)-2-(3-(trifluoromethyl)phenyl)imidazo[1,2-a]pyridine-8-carboxamide]
A (EC1.5<1.0 uM) | > 200% | O=C(Nc1ccccn1)c1cccn2cc(-c3cccc(CN4CCOCC4)c3)nc12 [Compound 255]
B (EC1.5 1-25 uM) | > 200% | O=C(Nc1cccc(CN2CCOCC2)n1)c1cccn2cc(-c3ccc(F)c(F)c3)nc12 [Compound 195]
C (EC1.5>25 uM) | < 200% | O=C(Nc1nccs1)c1cccn2nc(-c3ccc(F)cc3C(F)F)nc12 [Compound 263]
C (EC1.5>25 uM) | < 200% | O=C(NC1CCCC1)c1cccn2cc(-c3ccccc3)nc12 [Compound 110]
B (EC1.5 1-25 uM) | > 200% | Cc1ccc(-c2nc3c(C(=O)Nc4cccc(CN5CCOCC5)n4)cccn3n2)cn1 [Compound 213]
B (EC1.5 1-25 uM) | > 200% | O=C(Nc1ccccn1)c1cccn2nc(-c3ccc(OC[C@@H](O)CO)cc3C(F)F)nc12 [Compound 250]
A (EC1.5<1.0 uM) | > 200% | O=C(Nc1cccc(CN2CCOCC2)n1)c1nccn2cc(-c3ccc(F)cc3C(F)(F)F)nc12 [Compound 261]
B (EC1.5 1-25 uM) | > 200% | O=C(Nc1cccnn1)c1nccn2cc(-c3ccccc3C(F)(F)F)nc12 [Compound 174]

EC1.5 | Emax | SMILES
B (EC1.5 1-25 uM) | < 200% | O=C(Nc1nccs1)c1cccn2cc(-c3cccc(C(F)F)c3)nc12 [Compound 206]
B (EC1.5 1-25 uM) | < 200% | O=C(Nc1nc(CN2CCOCC2)cs1)c1cccn2cc(-c3cccc(F)c3F)nc12 [Compound 231]
B (EC1.5 1-25 uM) | > 200% | O=C(Nc1ccc(CN2CCOCC2)cc1)c1cccn2cc(-c3ccc(F)cc3C(F)(F)F)nc12 [Compound 147]
B (EC1.5 1-25 uM) | > 200% | O=C(Nc1nc(CN2CCOCC2)cs1)c1cccn2nc(-c3cccc(OC(F)(F)F)c3)nc12 [Compound 179]
A (EC1.5<1.0 uM) | > 200% | O=C(Nc1nc(CN2CCOCC2)cs1)c1cccn2cc(-c3cccc(OC(F)(F)F)c3)nc12 [Compound 133]
A (EC1.5<1.0 uM) | > 200% | O=C(Nc1cccc(CN2CCOCC2)n1)c1cccn2cc(-c3ccc(F)c(Cl)c3)nc12 [Compound 236]
C (EC1.5>25 uM) | < 200% | O=C(Nc1nccs1)c1cccn2cc(-c3ccc(F)cc3)nc12 [Compound 156]
A (EC1.5<1.0 uM) | > 200% | O=C(Nc1nccs1)c1cccn2nc(-c3ccc(N4CCOCC4)cc3C(F)(F)F)nc12 [Compound 219, 2-(4-morpholino-2-(trifluoromethyl)phenyl)-N-(thiazol-2-yl)-[1,2,4]triazolo[1,5-a]pyridine-8-carboxamide]
A (EC1.5<1.0 uM) | > 200% | O=C(Nc1cccc(CN2CCOCC2)n1)c1cccn2cc(-c3cc(F)cc(F)c3)nc12 [Compound 193]
C (EC1.5>25 uM) | < 200% | O=C(Nc1ccc(CCN2CCCC2)cc1)c1cccn2cc(-c3ccc(F)cc3C(F)(F)F)nc12 [Compound 218]
A (EC1.5<1.0 uM) | > 200% | O=C(Nc1ccncn1)c1nccn2cc(-c3ccc(F)cc3C(F)(F)F)nc12 [Compound 246]
B (EC1.5 1-25 uM) | > 200% | Cc1cnc(NC(=O)c2nccn3cc(-c4ccccc4OC(F)(F)F)nc23)s1 [Compound 187]
A (EC1.5<1.0 uM) | > 200% | O=C(Nc1cccc(CN2CCOCC2)n1)c1nccn2cc(-c3ccccc3C(F)(F)F)nc12 [Compound 259]
A (EC1.5<1.0 uM) | > 200% | O=C(Nc1cccc(CN2CCOCC2)n1)c1cccn2cc(-c3cccc(OC(F)(F)F)c3)nc12 [Compound 161]
B (EC1.5 1-25 uM) | < 200% | O=C(Nc1cccc(CN2CCOCC2)n1)c1cccn2cc(-c3ccc(F)cc3F)nc12 [Compound 199]
B (EC1.5 1-25 uM) | > 200% | Cc1cc(-c2nc3c(C(=O)Nc4nc(CN5CCOCC5)cs4)cccn3n2)ccn1 [Compound 216]
C (EC1.5>25 uM) | < 200% | O=C(Nc1nccs1)c1cccn2cc(-c3ccc(N4CCCC4)cc3)nc12 [Compound 166]
B (EC1.5 1-25 uM) | > 200% | O=C(Nc1ccncn1)c1nccn2cc(-c3ccccc3C(F)(F)F)nc12 [Compound 175]
A (EC1.5<1.0 uM) | > 200% | O=C(Nc1nc(CN2CCOCC2)cs1)c1cccn2cc(-c3cccc(C(F)F)c3)nc12 [Compound 208]
B (EC1.5 1-25 uM) | > 200% | O=C(Nc1nc(CN2CCOCC2)cs1)c1cccn2nc(-c3cccc(C(F)(F)F)c3)nc12 [Compound 177, N-(4-(morpholinomethyl)thiazol-2-yl)-2-(3-(trifluoromethyl)phenyl)-[1,2,4]triazolo[1,5-a]pyridine-8-carboxamide]
B (EC1.5 1-25 uM) | < 200% | O=C(Nc1cccc(CN2CCOCC2)n1)c1cccn2cc(-c3cccc(F)c3F)nc12 [Compound 232]
C (EC1.5>25 uM) | < 200% | O=C(Nc1ccccc1)c1cccn2cc(-c3cccc(C(F)(F)F)c3)nc12 [Compound 113, N-phenyl-2-(3-(trifluoromethyl)phenyl)imidazo[1,2-a]pyridine-8-carboxamide]
B (EC1.5 1-25 uM) | > 200% | Cc1csc(NC(=O)c2cccn3cc(-c4ccccc4)nc23)n1 [Compound 107]
C (EC1.5>25 uM) | < 200% | O=C(Nc1nccs1)c1cccn2cc(-c3cccc(C(F)(F)F)c3)nc12 [Compound 112]
